The results in this text go back to patent US20150359771A1, “TREATING PULMONARY CONDITIONS” (priority 2013, published 2015).

Assay [1] has as its system IL1-β. The assay can be described thus: IL1-β secretion from MLEC, direct treatment, ELISA. Conditions: theophylline 1 μM, leucine 0.5 mM, resveratrol 200 nM, FIG. 4. The class given is cell-based, mouse. The text has this:
(§1) Interleukin 1-β, eotaxin, and interleukin 6 were all measured via enzyme-linked immunosorbent assay using specific antibodies for each cytokine (Abcam, Cambridge, Mass.) and a horseradish peroxidase-based second antibody detection system, with chromogenic detection at 450 nm using a microplate reader (Synergy HT, BioTek Instruments, Winooski, Vt.).
(In general: An ELISA detects its analyte on a solid surface through an enzyme-linked reagent.)

Assay [2] deals with phospho-NFκB. The experiment in a line: phospho-NFκB protein expression in MLEC, direct treatment, Western blot. The class given is cell-based, mouse. Particulars: theophylline 1 μM, leucine 0.5 mM, resveratrol 200 nM. Here is the method: (§2) Cells were grown in Dulbecco's modified eagle's medium (DMEM) containing a growth factor supplement (Cell Biologics # M1 166) which included 5% fetal bovine serum (FBS), heparin, EGF, hydrocortisone, L-glutamine and antibiotics at 37° C. in 5% CO2.
For Western blot, 2 μg (for NFκB) or 4 μg (for phospho-NFκB) of protein from the cell lysate was resolved on 10% Tris/HCL polyacrylamide gels (Criterion precast gel, Bio-Rad Laboratories, Hercules, Calif.), transferred to PVDF membranes (NFκB and phospho-NFκB), incubated in blocking buffer (3% BSA in TBS) and then incubated with primary antibody, washed and incubated with secondary horseradish peroxidase-conjugated antibody.
(§3) Following treatment, western blots or ELISA assays were performed on the MLEC to determine the level of various indicators of airway diseases, such as NFκB protein expression, eotaxin secretion, IL1-β secretion, cellular IL6 content or secretion, adiponectin receptor 1 protein expression, and adiponectin receptor 2 protein expression.
(In general: In western blotting, separated proteins are transferred to a membrane and probed.)

The subject of assay [3] is eotaxin. The assay can be described thus: eotaxin secretion from MLEC, direct treatment, ELISA. The class given is cell-based, mouse. Conditions: theophylline 1 μM, leucine 0.5 mM, resveratrol 200 nM, FIG. 5.
Text: as §1

For assay [4], the system named is IL 6. The experiment in a line: cellular IL 6 content in MLEC, direct treatment. It is filed as cell-based, mouse. Particulars: theophylline 1 μM, leucine 0.5 mM, resveratrol 200 nM, FIG. 7. Here is the method:
as §2, §1, §3

Assay [5] concerns IL 6. The experiment in a line: IL 6 secretion from MLEC, direct treatment, ELISA. Conditions: FIG. 8. It is filed as cell-based, mouse. Here is the method: as §2, §1, §3
The test system of assay [6] is NFκB. The experiment in a line: NFκB protein expression in mouse primary lung endothelial cells (MLEC), direct treatment, Western blot. It is filed as cell-based. Conditions: theophylline 1 μM, leucine 0.5 mM, resveratrol 200 nM, FIG. 1.

Turning to `Cn1c(=O)c2[nH]cnc2n(C)c1=O` [theophylline], in assay [1], the “effect on IL1-β secretion (in words)” value is on record as “no significant independent effect”. For the same compound, the “effect on phospho-NFκB levels” value in assay [2] was “no effect”. Besides, in assay [3], the “effect on eotaxin secretion (in words)” value is on record as “no significant effect”. For the same compound, the “effect on cellular expression of IL 6” value in assay [4] is “unaffected”. The “effect on IL 6 secretion (in words)” value in assay [5] was “no significant independent effect”. Moreover, the “effect on NFκB protein expression relative to control” value in assay [6] is on record as “no independent effect”.

On to TNFα, for which, in assay [1], the “effect on IL1-β secretion (in words)” value is on record as “increase”. The “effect on eotaxin secretion (in words)” value in assay [3] is recorded as “no significant effect”. Besides, the “effect on IL 6 secretion (in words)” value in assay [5] is on record as “significant increase”.
